From patent publication US20250313549A1, “HERBICIDAL DERIVATIVES” (SYNGENTA CROP PROTECTION AG, priority 2021, published 2025)

What was measured:
Type in all cases: in vivo
[1] = system: Amaranthus palmeri (AMAPA); assay: Post-emergence test, herbicidal damage; settings: sprayed after 8 days cultivation, 1000 g/ha, evaluated after 13 days
Description: (§1) Seeds of a variety of test species are sown in standard soil in pots (Amaranthus retoflexus (AMARE), Echinochloa crus-galli (ECHCG), Amaranthus palmeri (AMAPA), Setaria faberi (SETFA), Zea mays (ZEAMX), Ipomoea hederacea (IPOHE)). After 8 days cultivation under controlled conditions in a glasshouse (at 24° C./16° C., day/night; 14 hours light; 65% humidity), the plants are sprayed with an aqueous spray solution derived from the formulation of the technical active ingredient in acetone/water (50:50) solution containing 0.5% Tween 20 (polyoxyethylene sorbitan monolaurate, CAS RN 9005-64-5). Compounds are applied at 1000 g/ha unless otherwise stated. The test plants are then grown in a glasshouse under controlled conditions in a glasshouse (at 24° C./16° C., day/night; 14 hours light; 65% humidity) and watered twice daily. After 13 days the test is evaluated for the percentage damage caused to the plant. The biological activities are shown in the following table on a five-point scale (5=81-100%; 4=61-80%; 3=41-60%; 2=21-40%; 1=10-20%; 0=0%; -=not tested).

[2] = system: Amaranthus retoflexus (AMARE); assay: Post-emergence test, herbicidal damage; settings: sprayed after 8 days cultivation, 1000 g/ha, evaluated after 13 days
Description: as §1

[3] = system: Echinochloa crus-galli (ECHCG); assay: Post-emergence test, herbicidal damage; settings: sprayed after 8 days cultivation, 1000 g/ha, evaluated after 13 days
Description: as §1

[4] = system: Ipomoea hederacea (IPOHE); assay: Post-emergence test, herbicidal damage; settings: sprayed after 8 days cultivation, 1000 g/ha, evaluated after 13 days
Description: as §1

Setaria faberi (SETFA) = assay: Post-emergence test, herbicidal damage; settings: sprayed after 8 days cultivation, 1000 g/ha, evaluated after 13 days
Description: as §1

Zea mays (ZEAMX) [5] = assay: Post-emergence test, herbicidal damage; settings: sprayed after 8 days cultivation, 1000 g/ha, evaluated after 13 days
Description: as §1

[6] = system: Amaranthus retoflexus (AMARE); assay: Pre-emergence test, herbicidal damage; settings: 1000 g/ha, evaluated after 13 days
[7] = system: Echinochloa crus-galli (ECHCG); assay: Pre-emergence test, herbicidal damage; settings: 1000 g/ha, evaluated after 13 days
[8] = system: Amaranthus palmeri (AMAPA); assay: Pre-emergence test, herbicidal damage; settings: 1000 g/ha, evaluated after 13 days
Zea mays (ZEAMX) [9] = assay: Pre-emergence test, herbicidal damage; settings: 1000 g/ha, evaluated after 13 days
[10] = system: Ipomoea hederacea (IPOHE); assay: Pre-emergence test, herbicidal damage; settings: 1000 g/ha, evaluated after 13 days

Structure (SMILES) | percentage damage caused to the plant, AMAPA [1] | percentage damage caused to the plant, AMARE [2] | percentage damage caused to the plant, ECHCG [3] | percentage damage caused to the plant, IPOHE [4] | percentage damage caused to the plant, SETFA (Setaria faberi (SETFA)) | percentage damage caused to the plant, ZEAMX (Zea mays (ZEAMX) [5]) | percentage damage caused to the plant, AMARE [6] | percentage damage caused to the plant, ECHCG [7] | percentage damage caused to the plant, AMAPA [8] | percentage damage caused to the plant, ZEAMX (Zea mays (ZEAMX) [9]) | percentage damage caused to the plant, IPOHE [10]
CCOC(=O)c1nn(-c2ccnc(Cl)c2)c2cccc(Br)c2c1=O [Compound 3, ethyl 5-bromo-1-(2-chloro-4-pyridyl)-4-oxo-cinnoline-3-carboxylate] | 1 (1=10-20%) | 2 (2=21-40%) | 2 (2=21-40%) | 0 (0=0%) | 0 (0=0%) | 0 (0=0%) |  |  |  |  | 
CCOC(=O)c1nn(-c2ccc(F)nc2)c2cccc(C#N)c2c1=O [Compound 11, ethyl 5-cyano-1-(6-fluoro-3-pyridyl)-4-oxo-cinnoline-3-carboxylate] | 0 (0=0%) | 0 (0=0%) | 2 (2=21-40%) | 0 (0=0%) | 0 (0=0%) | 1 (1=10-20%) |  |  |  |  | 
CCOC(=O)c1nn(-c2ccc(OC(F)F)nc2)c2cccc(C#N)c2c1=O [Compound 35, ethyl 5-cyano-1-[6-(difluoromethoxy)-3-pyridyl]-4-oxo-cinnoline-3-carboxylate] | 1 (1=10-20%) | 1 (1=10-20%) | 0 (0=0%) | 1 (1=10-20%) | 0 (0=0%) |  |  |  |  |  | 
CCOC(=O)c1nn(-c2ccc(C(F)F)nc2)c2cccc(Br)c2c1=O [Compound 30, ethyl 5-bromo-1-[6-(difluoromethyl)-3-pyridyl]-4-oxo-cinnoline-3-carboxylate] | 1 (1=10-20%) | 1 (1=10-20%) | 4 (4=61-80%) | 2 (2=21-40%) | 0 (0=0%) |  | 0 (0=0%) | 2 (2=21-40%) | 0 (0=0%) | 0 (0=0%) | 0 (0=0%)
CCOC(=O)c1nn(-c2ncc(Cl)cc2C#N)c2cccc(Br)c2c1=O [Compound 33, ethyl 5-bromo-1-(5-chloro-3-cyano-2-pyridyl)-4-oxo-cinnoline-3-carboxylate] |  | 0 (0=0%) | 1 (1=10-20%) | 1 (1=10-20%) | 1 (1=10-20%) | 0 (0=0%) |  |  |  |  | 
CCOC(=O)c1nn(-c2cnc(Cl)c(C)c2)c2cccc(Br)c2c1=O [Compound 26, ethyl 5-bromo-1-(6-chloro-5-methyl-3-pyridyl)-4-oxo-cinnoline-3-carboxylate] | 1 (1=10-20%) | 2 (2=21-40%) | 0 (0=0%) | 2 (2=21-40%) | 1 (1=10-20%) |  | 1 (1=10-20%) | 0 (0=0%) | 1 (1=10-20%) | 0 (0=0%) | 0 (0=0%)
CCOC(=O)c1nn(-c2cnc(OC)c(F)c2)c2cccc(Br)c2c1=O [Compound 22, ethyl 5-bromo-1-(5-fluoro-6-methoxy-3-pyridyl)-4-oxo-cinnoline-3-carbox-ylate] | 0 (0=0%) | 0 (0=0%) | 0 (0=0%) | 0 (0=0%) | 0 (0=0%) | 0 (0=0%) |  |  |  |  | 
CCOC(=O)c1nn(-c2cnc(OC)c(C)c2)c2cccc(Br)c2c1=O [Compound 29, ethyl 5-bromo-1-(6-methoxy-5-methyl-3-pyridyl)-4-oxo-cinnoline-3-carboxylate] | 1 (1=10-20%) | 2 (2=21-40%) | 1 (1=10-20%) | 2 (2=21-40%) | 0 (0=0%) |  |  |  |  |  | 
CCOC(=O)c1nn(-c2cncc(Cl)c2)c2cccc(Br)c2c1=O [Compound 5, ethyl 5-bromo-1-(5-chloro-3-pyridyl)-4-oxo-cinnoline-3-carboxylate] | 1 (1=10-20%) | 1 (1=10-20%) | 2 (2=21-40%) | 1 (1=10-20%) | 2 (2=21-40%) | 1 (1=10-20%) |  |  |  |  | 
CCOC(=O)c1nn(-c2ccc(OC)nc2)c2cccc(Br)c2c1=O [Compound 4, ethyl 5-bromo-1-(6-methoxy-3-pyridyl)-4-oxo-cinnoline-3-carboxylate] | 1 (1=10-20%) | 2 (2=21-40%) | 0 (0=0%) | 0 (0=0%) | 0 (0=0%) | 0 (0=0%) |  |  |  |  | 
CCOC(=O)c1nn(-c2cncnc2)c2cccc(Br)c2c1=O [Compound 8, ethyl 5-bromo-4-oxo-1-pyrimidin-5-yl-cinnoline-3-carboxylate] | 0 (0=0%) | 0 (0=0%) | 0 (0=0%) | 0 (0=0%) | 0 (0=0%) | 0 (0=0%) |  |  |  |  | 
CCOC(=O)c1nn(-c2ccnc(OC(F)F)c2)c2cccc(Br)c2c1=O [Compound 38, ethyl 5-bromo-1-[2-(difluoromethoxy)-4-pyridyl]-4-oxo-cinnoline-3-carboxylate] | 1 (1=10-20%) | 2 (2=21-40%) | 0 (0=0%) | 2 (2=21-40%) | 1 (1=10-20%) |  |  |  |  |  | 
CCOC(=O)c1nn(-c2cnc3c(c2)OC(F)(F)O3)c2cccc(Br)c2c1=O [Compound 24, ethyl 5-bromo-1-(2,2-difluoro-[1,3]dioxolo[4,5-b]pyridin-6-yl)-4-oxo-cinnoline-3-carboxylate] | 0 (0=0%) | 0 (0=0%) | 2 (2=21-40%) | 0 (0=0%) | 2 (2=21-40%) | 1 (1=10-20%) |  |  |  |  | 
CCOC(=O)c1nn(-c2ccnc(OC)c2)c2cccc(Br)c2c1=O [Compound 9, ethyl 5-bromo-1-(2-methoxy-4-pyridyl)-4-oxo-cinnoline-3-carboxylate] | 1 (1=10-20%) | 1 (1=10-20%) | 1 (1=10-20%) | 0 (0=0%) | 0 (0=0%) | 1 (1=10-20%) |  |  |  |  | 
